# Experimental data: US20220387366A1, “Compositions for Regulating Homeostasis of Cortisol and Improving Sleep Quality and Methods of Use and Production Thereof” (Unigen, Inc., priority 2021, published 2022)
# Marks after values point to notes of the source that are not given here.
# Experiments:
# [1] = biological target: T1, MT2 receptor (Homo sapiens, UniProt P49286); experiment: Melatonin receptor MT2 binding assay, displacement of [125I]2-Iodomelatonin; conditions: for inhibition at 0.015625 µg/mL: 0.015625 μg/mL; for inhibition at 0.03125 µg/mL: 0.03125 μg/mL; for inhibition at 0.0625 µg/mL: 0.0625 μg/mL; for inhibition at 0.125 µg/mL: 0.125 μg/mL; for inhibition at 0.25 µg/mL: 0.25 μg/mL; for inhibition at 1 µg/mL: 1 μg/mL; for inhibition at 2 µg/mL: 2 μg/mL; for inhibition at 4 µg/mL: 4 μg/mL; for inhibition at 8 µg/mL: 8 μg/mL; for inhibition against MT2 receptor: concentration range from 8 ug/mL to 0.015625 μg/mL
# T1 construct: expressed in transfected cells; host or cells: CHO-K1 cells (membranes)
# T1 sequence (P49286 1-362): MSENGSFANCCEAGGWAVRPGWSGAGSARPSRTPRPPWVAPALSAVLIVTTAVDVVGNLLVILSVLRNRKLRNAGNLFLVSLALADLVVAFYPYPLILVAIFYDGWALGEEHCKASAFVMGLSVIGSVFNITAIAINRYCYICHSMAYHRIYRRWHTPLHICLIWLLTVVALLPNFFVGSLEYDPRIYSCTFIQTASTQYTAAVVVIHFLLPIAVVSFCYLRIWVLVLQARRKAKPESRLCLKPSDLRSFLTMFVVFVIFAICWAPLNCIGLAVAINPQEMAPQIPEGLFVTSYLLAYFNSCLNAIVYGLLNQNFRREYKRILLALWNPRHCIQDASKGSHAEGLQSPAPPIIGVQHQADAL
# [2] = biological target: T2, MT1 receptor (Homo sapiens, UniProt P48039); experiment: Melatonin receptor MT1 binding assay, displacement of [125I]2-Iodomelatonin; conditions: for inhibition at 0.015625 µg/mL: 0.015625 μg/mL; for inhibition at 0.03125 µg/mL: 0.03125 μg/mL; for inhibition at 0.0625 µg/mL: 0.0625 μg/mL; for inhibition at 0.125 µg/mL: 0.125 μg/mL; for inhibition at 0.25 µg/mL: 0.25 μg/mL; for inhibition at 0.5 µg/mL: 0.5 μg/mL; for inhibition at 1 µg/mL: 1 μg/mL; for inhibition at 2 µg/mL: 2 μg/mL; for inhibition at 4 µg/mL: 4 μg/mL; for inhibition at 8 µg/mL: 8 μg/mL; for inhibition against MT1 receptor: concentration range from 8 ug/mL to 0.015625 μg/mL
# T2 construct: expressed in transfected cells; host or cells: CHO-K1 cells (membranes)
# T2 sequence (P48039 whole entry): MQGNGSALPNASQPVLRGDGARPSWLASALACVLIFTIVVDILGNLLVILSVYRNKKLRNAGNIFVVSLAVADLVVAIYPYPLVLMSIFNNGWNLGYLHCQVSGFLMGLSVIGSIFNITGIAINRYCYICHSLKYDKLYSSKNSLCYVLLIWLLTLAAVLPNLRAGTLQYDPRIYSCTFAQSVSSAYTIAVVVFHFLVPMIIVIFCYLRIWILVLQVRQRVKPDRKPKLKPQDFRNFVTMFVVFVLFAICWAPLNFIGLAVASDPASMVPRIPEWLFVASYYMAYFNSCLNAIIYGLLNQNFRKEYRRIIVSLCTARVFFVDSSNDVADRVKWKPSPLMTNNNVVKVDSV
# Experimental: Human recombinant melatonin receptors (MT1 and MT2) were expressed in CHO-K1 cells and resuspended in buffer. The membranes containing recombinant receptors were incubated with test compounds in combination with 0.05 nM [125I]2-lodomelatonin for 180 minutes at 25° C. Membranes were immobilized on filters before being washed and the [125I]2-Iodomelatonin was counted. Test compounds that bound to MT1 or MT2 in the same binding site as melatonin displaced [125I]2-lodomelatonin, reducing the count. […] 0.00021 μM Melatonin was used as a positive control to displace [125I]2-Iodomelatonin (Paul et al., 1999; Beresford et al., 1998).
# All samples were dissolved in 1% DMSO.
# [3] = system: Male BALB/C mice; experiment: Sleep time induced by pentobarbital sodium (36 mg/kg i.p.) after 32 days of dosing; assay type: in vivo
# Experimental: Male BALB/C mice (18 g˜22 g) were randomly assigned to groups of vehicle control (sterile water); positive control group, melatonin 1 mg/kg BW (0.1 g/L); low dose group, a composition derived from enriched for one or more phenylpropanoid acids and benzoxazinoids 250 mg/kg BW (25 g/L in sterile water); middle dose group, a composition derived from enriched for one or more phenylpropanoid acids and benzoxazinoids 500 mg/kg BW (50 g/L in sterile water); and high dose group, a composition derived from enriched for one or more phenylpropanoid acids and benzoxazinoids 1000 mg/kg BW (100 g/L in sterile water). Each animal received the respective dose daily for 32 consecutive days. 15 min after the last dose, each group of mice was intraperitoneally injected with 36 mg/kg pentobarbital sodium (in 0.1 mL/10 g). The sleep time of each mouse was recorded and the difference of sleep time between a composition derived from enriched for one or more phenylpropanoid acids and benzoxazinoids-treated groups and vehicle control was determined.
# [4] = system: Male BALB/C mice; experiment: Acute effect on sleep following a single oral administration; assay type: in vivo; conditions: single oral 1 mg/kg
# Experimental: Male BALB/C mice (18 g˜22 g) were randomly assigned to groups of vehicle control (sterile water); positive control group, melatonin 1 mg/kg BW (0.1 g/L); low dose group, a composition derived from enriched for one or more phenylpropanoid acids and benzoxazinoids 250 mg/kg BW (25 g/L in sterile water); middle dose group, a composition derived from enriched for one or more phenylpropanoid acids and benzoxazinoids 500 mg/kg BW (50 g/L in sterile water); and high dose group, a composition derived from enriched for one or more phenylpropanoid acids and benzoxazinoids 1000 mg/kgBW (100 g/L in sterile water). Mice were administered the respective treatment group and observed for 60 min monitor the direct impact of test compounds on sleep following a single oral administration. When naive mice are placed into a supine position, they instantaneously turn to the upright position. However, mice under the hypnotic dose of pentobarbital remain on the supine position for measurable amount of time. Sleeping was indexed as the disappearance of reflex to turnover to the right side, and mouse was considered asleep when the time to turn over to the side was over 30 s after mouse was treated with a composition derived from enriched for one or more phenylpropanoid acids and benzoxazinoids. In the current study, none of the treatment groups induce sleep following a single oral administration (Table 15).
# [5] = system: Male BALB/C mice; experiment: Sleep latency / sleeping incidence with subthreshold pentobarbital sodium (26 mg/kg i.p.) after 32 days of dosing; assay type: in vivo; conditions: 1 mg/kg
# Experimental: Male BALB/C mice (18 g˜22 g) were randomly assigned to groups of vehicle control (sterile water); positive control group, melatonin 1 mg/kg BW (0.1 g/L); low dose group, a composition derived from enriched for one or more phenylpropanoid acids and benzoxazinoids 250 mg/kg BW (25 g/L in sterile water); middle dose group, a composition derived from enriched for one or more phenylpropanoid acids and benzoxazinoids 500 mg/kg BW (50 g/L in sterile water); and high dose group, a composition derived from enriched for one or more phenylpropanoid acids and benzoxazinoids 1000 mg/kg BW (100 g/L in sterile water). Each animal received the respective dose daily for 32 consecutive days. Mice from each group were intraperitoneally injected with 26 mg/kg pentobarbital sodium (0.1 mL/10 g BW), 15 min after the last dose to induce subthreshold hypnosis. The numbers of mice that lose the reflex to turnover to the right side over 1 min after injection of pentobarbital sodium were recorded for 30 min. The incidence of sleeping mice was analyzed to compare the difference between the tested substance groups and vehicle control. Latency of sleep is the number of animals with loss of the righting reflex in duration of time elapsed after pentobarbital administrations. […] As a result, the subthreshold dose of pentobarbital was given to each mouse 15 min after the last dose of test materials to assess the effect of materials on sleep latency. Thirty minutes post pentobarbital injection, the number of mice with no reflex to turn over to the right side over the duration of 1 min was recorded. Data were reported as incidence of sleeping. […] These incidences were statistically significant for both the high dose of UP165 and melatonin compared to the vehicle control animals. In comparison, the incidence in the vehicle-treated group was only 20%. Positive trends (60% of mice both in the 250 and 500 mg/kg group) were also observed for the low and mid doses of UP165.
compound,measurement,setting,value
3-methoxy-hydrocoumaric acid,MT2 receptor binding (inhibition),"[1]; isolated compounds, 0.5 μg/mL",8.9%
same,MT2 receptor binding (inhibition),"[1]; isolated compounds, 2.5 μg/mL",22.9%
"COc1ccc2nc(O)oc2c1 [6-MBOA, 6-methoxy-2-benzoxazolol, reference compound]",inhibition at 0.0032 µM,[2]; 0.0032 μM,2%
same,inhibition at 0.0064 µM,[2]; 0.0064 μM,3%
same,inhibition at 0.013 µM,[2]; 0.013 μM,8%
same,inhibition at 0.025 µM,[2]; 0.025 μM,11%
same,inhibition at 0.051 µM,[2]; 0.051 μM,5%
same,inhibition at 0.102 µM,[2]; 0.102 μM,1%
same,inhibition at 0.204 µM,[2]; 0.204 μM,7%
same,inhibition at 0.407 µM,[2]; 0.407 μM,6%
same,inhibition at 0.815 µM,[2]; 0.815 μM,7%
same,inhibition at 1.63 µM,[2]; 1.63 μM,8%
same,inhibition of 2-lodomelatonin binding to MT1,[2]; at the concentrations tested (3.2 nM to 1.63 μM),did not inhibit
same,inhibition at 0.815 µM,[1]; 0.815 μM,-12%
same,inhibition at 1.63 µM,[1]; 1.63 μM,-4%
same,inhibition at 3.26 µM,[1]; 3.26 μM,8%
same,inhibition at 6.52 µM,[1]; 6.52 μM,11%
same,inhibition at 13.04 µM,[1]; 13.04 μM,15%
same,inhibition of 2-lodomelatonin binding to MT2,[1]; at the concentrations tested (0.815 to 13.04 μM),did not inhibit
COc1cc(/C=C/C(=O)O)ccc1O [Ferulic acid],inhibition at 0.5 µg/mL,"[1]; isolated compounds, 0.5 μg/mL",2.6%
same,inhibition at 2.5 µg/mL,"[1]; isolated compounds, 2.5 μg/mL",1.6%
"COc1ccc2c(c1)OC(O)C(=O)N2 (stereo not drawn) [HMBOA, 2-Hydroxy-7-methoxy-2H-1,4-benzoxazin-3(4H)-one]",inhibition at 0.5 µg/mL,"[1]; isolated compounds, 0.5 μg/mL",3.9%
same,inhibition at 2.5 µg/mL,"[1]; isolated compounds, 2.5 μg/mL",28%
"COc1ccc2c(c1)OC(O[C@@H]1O[C@H](CO)[C@@H](O)[C@H](O)[C@H]1O)C(=O)N2 (stereo partly drawn) [MW357, 2-(β-D-Glucopyranosyloxy)-7-methoxy-2H-1,4-benzoxazin-3(4H)-one]",inhibition at 0.015625 µg/mL,[2],3%
same,inhibition at 0.03125 µg/mL,[2],1%
same,inhibition at 0.0625 µg/mL,[2],-4%
same,inhibition at 0.125 µg/mL,[2],-1%
same,inhibition at 0.25 µg/mL,[2],0%
same,inhibition at 0.5 µg/mL,[2],-5%
same,inhibition at 1 µg/mL,[2],-2%
same,inhibition at 2 µg/mL,[2],-4%
same,inhibition at 4 µg/mL,[2],-5%
same,inhibition at 8 µg/mL,[2],0%
same,inhibition against MT1 receptor,[2],Neither compound show any inhibition
same,inhibition at 0.015625 µg/mL,[1],4%
same,inhibition at 0.03125 µg/mL,[1],2%
same,inhibition at 0.0625 µg/mL,[1],1%
same,inhibition at 0.125 µg/mL,[1],-6%
same,inhibition at 0.25 µg/mL,[1],5%
same,inhibition at 0.5 µg/mL,[1]; 0.5 μg/mL,4%
same,inhibition at 1 µg/mL,[1],3%
same,inhibition at 2 µg/mL,[1],10%
same,inhibition at 4 µg/mL,[1],5%
same,inhibition at 8 µg/mL,[1],3%
same,inhibition against MT2 receptor,[1],Neither compound show any inhibition
"COc1ccc2c(c1)OC(O[C@@H]1O[C@H](CO)[C@@H](O)[C@H](O)[C@H]1O)C(=O)N2OC (stereo partly drawn) [MW387, 2-(β-D-Glucopyranosyloxy)-4,7-dimethoxy-2H-1,4-benzoxazin-3(4H)-one]",inhibition at 0.015625 µg/mL,[2],2%
same,inhibition at 0.03125 µg/mL,[2],-3%
same,inhibition at 0.0625 µg/mL,[2],-6%
same,inhibition at 0.125 µg/mL,[2],-2%
same,inhibition at 0.25 µg/mL,[2],6%
same,inhibition at 0.5 µg/mL,[2],6%
same,inhibition at 1 µg/mL,[2],1%
same,inhibition at 2 µg/mL,[2],-1%
same,inhibition at 4 µg/mL,[2],-5%
same,inhibition at 8 µg/mL,[2],3%
same,inhibition against MT1 receptor,[2],Neither compound show any inhibition
same,inhibition at 0.015625 µg/mL,[1],-4%
same,inhibition at 0.03125 µg/mL,[1],-6%
same,inhibition at 0.0625 µg/mL,[1],-2%
same,inhibition at 0.125 µg/mL,[1],-6%
same,inhibition at 0.25 µg/mL,[1],-3%
same,inhibition at 0.5 µg/mL,[1]; 0.5 μg/mL,7%
same,inhibition at 1 µg/mL,[1],-2%
same,inhibition at 2 µg/mL,[1],0%
same,inhibition at 4 µg/mL,[1],3%
same,inhibition at 8 µg/mL,[1],4%
same,inhibition against MT2 receptor,[1],Neither compound show any inhibition
COc1ccc2[nH]cc(CCNC(C)=O)c2c1 [Melatonin],increase in sleep time compared to vehicle control,[3]; 1 mg/kg,12.0 ± 1.3 min
same,Sleep Time,"[3]; 1 mg/kg daily for 32 days, Mean ± SD",42.6 ± 10.7 min
same,Incidence of sleeping,[4],0%
same,Sleeping No.,[4]; of 15 mice,0
same,Incidence of sleeping,[5],80%*
same,Sleeping No.,[5]; of 15 mice,12
same,Incidence of sleeping,[5]; listed as melatonin,80%
O=C(O)CCc1ccc(O)cc1 [Phloretic acid],inhibition at 5 µg/mL,"[1]; isolated compounds, 5 μg/mL",69%
same,inhibition at 25 µg/mL,"[1]; isolated compounds, 25 μg/mL",94%
O=C(O)/C=C/c1ccc(O)cc1 [p-coumaric acid],inhibition at 0.5 µg/mL,"[1]; isolated compounds, 0.5 μg/mL",0.5%
same,inhibition at 2.5 µg/mL,"[1]; isolated compounds, 2.5 μg/mL",6.7%
